In the kinase profiling compilation of Christmann-Franck et al. (2016):

Legend:
Assay in all cases: KINOMEscan competition binding
Conditions in all cases: compound 10.0 µM
MAPK14 (human) = MAPK14 (human) (UniProt Q16539)
GRK7 (human) = GRK7 (human) (UniProt Q8WTQ7)
FGFR3 (human) = FGFR3 (human) (UniProt P22607)
MARK3 (human) = MARK3 (human) (UniProt P27448)
RPS6KA4 KD1 (human) = RPS6KA4 KD1 (human) (UniProt O75676)
EPHA8 (human) = EPHA8 (human) (UniProt P29322)
NTRK3 (human) = NTRK3 (human) (UniProt Q16288)
SNRK (human) = SNRK (human) (UniProt Q9NRH2)
PIP4K2C (human) = PIP4K2C (human) (UniProt Q8TBX8)
MAST1 (human) = MAST1 (human) (UniProt Q9Y2H9)
DAPK3 (human) = DAPK3 (human) (UniProt O43293)
PHKG2 (human) = PHKG2 (human) (UniProt P15735)
[1] = biological target: TYK2 JH1 catalytic (human) (UniProt P29597)
MAP2K7 (human) = MAP2K7 (human) (UniProt O14733)
LIMK2 (human) = LIMK2 (human) (UniProt P53671)
BLK (human) = BLK (human) (UniProt P51451)
CDC42BPA (human) = CDC42BPA (human) (UniProt Q5VT25)
YES1 (human) = YES1 (human) (UniProt P07947)
MAP3K4 (human) = MAP3K4 (human) (UniProt Q9Y6R4)
CAMK2B (human) = CAMK2B (human) (UniProt Q13554)
MAP4K3 (human) = MAP4K3 (human) (UniProt Q8IVH8)
LIMK1 (human) = LIMK1 (human) (UniProt P53667)
CSNK1A1L (human) = CSNK1A1L (human) (UniProt Q8N752)
CDK14 (human) = CDK14 (human) (UniProt O94921)
SRPK2 (human) = SRPK2 (human) (UniProt P78362)
HCK (human) = HCK (human) (UniProt P08631)
BRSK1 (human) = BRSK1 (human) (UniProt Q8TDC3)
CSNK1A1 (human) = CSNK1A1 (human) (UniProt P48729)
MAP3K6 (human) = MAP3K6 (human) (UniProt O95382)
SRPK1 (human) = SRPK1 (human) (UniProt Q96SB4)
PIM2 (human) = PIM2 (human) (UniProt Q9P1W9)
MAP4K1 (human) = MAP4K1 (human) (UniProt Q92918)
MAP3K10 (human) = MAP3K10 (human) (UniProt Q02779)
BTK (human) = BTK (human) (UniProt Q06187)
[2] = tested on: EIF2AK4 KD2 (human), Q9P2K8 [S808G]
GAK (human) = GAK (human) (UniProt O14976)
CaMK1 (human) = CaMK1 (human) (UniProt Q14012)
PAK3 (human) = PAK3 (human) (UniProt O75914)
TNK2 (human) = TNK2 (human) (UniProt Q07912)
MAPK3 (human) = MAPK3 (human) (UniProt P27361)

Chain of BTK (human) (Q06187 whole entry, looked up): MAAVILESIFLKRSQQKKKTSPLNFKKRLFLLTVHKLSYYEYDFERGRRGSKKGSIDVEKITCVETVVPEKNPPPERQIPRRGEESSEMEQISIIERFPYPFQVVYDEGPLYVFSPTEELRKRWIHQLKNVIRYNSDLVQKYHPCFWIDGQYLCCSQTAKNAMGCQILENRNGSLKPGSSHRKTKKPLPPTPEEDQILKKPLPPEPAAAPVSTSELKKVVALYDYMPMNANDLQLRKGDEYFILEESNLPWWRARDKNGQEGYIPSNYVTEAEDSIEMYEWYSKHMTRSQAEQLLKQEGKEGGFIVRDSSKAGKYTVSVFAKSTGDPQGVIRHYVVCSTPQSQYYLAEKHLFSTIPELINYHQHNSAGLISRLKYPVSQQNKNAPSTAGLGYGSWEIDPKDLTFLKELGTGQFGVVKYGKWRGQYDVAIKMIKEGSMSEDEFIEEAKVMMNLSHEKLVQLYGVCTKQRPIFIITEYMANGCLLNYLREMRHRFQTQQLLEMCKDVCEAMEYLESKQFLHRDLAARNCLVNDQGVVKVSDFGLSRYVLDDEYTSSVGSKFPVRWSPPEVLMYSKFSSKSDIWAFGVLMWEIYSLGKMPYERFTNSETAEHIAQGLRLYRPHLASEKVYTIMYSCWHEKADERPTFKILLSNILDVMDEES
Chain of CSNK1A1 (human) (P48729 whole entry, looked up): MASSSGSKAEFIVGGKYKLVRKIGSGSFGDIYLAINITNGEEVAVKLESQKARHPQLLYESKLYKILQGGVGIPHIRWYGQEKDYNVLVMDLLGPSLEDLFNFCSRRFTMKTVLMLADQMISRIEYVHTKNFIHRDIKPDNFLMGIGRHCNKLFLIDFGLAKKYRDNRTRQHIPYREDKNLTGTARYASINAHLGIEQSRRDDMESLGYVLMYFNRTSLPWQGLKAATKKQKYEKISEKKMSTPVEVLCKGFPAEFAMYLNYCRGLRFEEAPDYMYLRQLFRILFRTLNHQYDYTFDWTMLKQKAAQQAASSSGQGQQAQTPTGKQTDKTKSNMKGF
Chain of TYK2 JH1 catalytic (human) (P29597 whole entry, looked up): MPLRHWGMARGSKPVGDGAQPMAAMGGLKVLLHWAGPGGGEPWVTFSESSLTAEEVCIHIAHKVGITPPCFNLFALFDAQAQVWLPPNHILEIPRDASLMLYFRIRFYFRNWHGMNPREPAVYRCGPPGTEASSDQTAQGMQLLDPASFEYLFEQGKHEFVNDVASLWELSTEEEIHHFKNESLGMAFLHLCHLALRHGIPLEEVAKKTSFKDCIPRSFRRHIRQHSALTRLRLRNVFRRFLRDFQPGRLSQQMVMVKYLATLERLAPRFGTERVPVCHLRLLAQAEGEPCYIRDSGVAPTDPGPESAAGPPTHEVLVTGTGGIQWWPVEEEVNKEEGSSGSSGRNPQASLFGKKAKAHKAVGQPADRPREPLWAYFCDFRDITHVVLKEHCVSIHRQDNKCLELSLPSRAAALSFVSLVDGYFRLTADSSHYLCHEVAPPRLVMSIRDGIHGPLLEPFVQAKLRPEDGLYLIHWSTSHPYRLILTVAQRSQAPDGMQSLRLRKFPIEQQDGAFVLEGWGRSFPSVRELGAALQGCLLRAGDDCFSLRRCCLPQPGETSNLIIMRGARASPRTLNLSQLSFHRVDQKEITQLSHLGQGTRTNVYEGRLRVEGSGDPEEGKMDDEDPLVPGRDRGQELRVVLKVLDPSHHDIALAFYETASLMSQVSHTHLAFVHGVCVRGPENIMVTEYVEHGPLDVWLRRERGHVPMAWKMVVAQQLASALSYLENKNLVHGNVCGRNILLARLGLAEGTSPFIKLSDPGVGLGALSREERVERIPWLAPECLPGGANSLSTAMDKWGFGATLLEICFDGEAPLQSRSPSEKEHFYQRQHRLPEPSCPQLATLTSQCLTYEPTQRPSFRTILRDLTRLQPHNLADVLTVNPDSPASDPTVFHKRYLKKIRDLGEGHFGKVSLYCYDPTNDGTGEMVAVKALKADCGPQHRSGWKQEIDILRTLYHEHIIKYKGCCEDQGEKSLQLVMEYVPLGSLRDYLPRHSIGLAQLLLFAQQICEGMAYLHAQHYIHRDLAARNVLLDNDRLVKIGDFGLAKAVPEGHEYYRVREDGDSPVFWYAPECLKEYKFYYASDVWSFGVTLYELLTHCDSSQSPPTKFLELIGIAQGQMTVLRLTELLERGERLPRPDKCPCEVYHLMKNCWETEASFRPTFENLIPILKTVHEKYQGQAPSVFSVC
Chain of GRK7 (human) (Q8WTQ7 whole entry, looked up): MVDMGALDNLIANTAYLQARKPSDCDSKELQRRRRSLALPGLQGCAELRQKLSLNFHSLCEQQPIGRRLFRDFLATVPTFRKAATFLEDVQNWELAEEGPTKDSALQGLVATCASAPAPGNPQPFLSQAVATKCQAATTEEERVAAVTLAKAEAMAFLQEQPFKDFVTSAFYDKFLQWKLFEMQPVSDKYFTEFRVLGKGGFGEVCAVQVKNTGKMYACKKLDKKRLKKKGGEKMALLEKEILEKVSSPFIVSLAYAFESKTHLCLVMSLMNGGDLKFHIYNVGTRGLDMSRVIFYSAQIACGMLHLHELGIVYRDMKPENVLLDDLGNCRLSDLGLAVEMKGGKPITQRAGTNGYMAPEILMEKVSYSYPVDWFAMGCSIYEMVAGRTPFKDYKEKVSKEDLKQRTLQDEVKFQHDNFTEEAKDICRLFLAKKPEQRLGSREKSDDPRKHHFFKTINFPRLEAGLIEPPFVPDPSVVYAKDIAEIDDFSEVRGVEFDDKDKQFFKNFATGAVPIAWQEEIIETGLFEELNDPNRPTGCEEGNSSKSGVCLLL
Chain of PAK3 (human) (O75914 whole entry, looked up): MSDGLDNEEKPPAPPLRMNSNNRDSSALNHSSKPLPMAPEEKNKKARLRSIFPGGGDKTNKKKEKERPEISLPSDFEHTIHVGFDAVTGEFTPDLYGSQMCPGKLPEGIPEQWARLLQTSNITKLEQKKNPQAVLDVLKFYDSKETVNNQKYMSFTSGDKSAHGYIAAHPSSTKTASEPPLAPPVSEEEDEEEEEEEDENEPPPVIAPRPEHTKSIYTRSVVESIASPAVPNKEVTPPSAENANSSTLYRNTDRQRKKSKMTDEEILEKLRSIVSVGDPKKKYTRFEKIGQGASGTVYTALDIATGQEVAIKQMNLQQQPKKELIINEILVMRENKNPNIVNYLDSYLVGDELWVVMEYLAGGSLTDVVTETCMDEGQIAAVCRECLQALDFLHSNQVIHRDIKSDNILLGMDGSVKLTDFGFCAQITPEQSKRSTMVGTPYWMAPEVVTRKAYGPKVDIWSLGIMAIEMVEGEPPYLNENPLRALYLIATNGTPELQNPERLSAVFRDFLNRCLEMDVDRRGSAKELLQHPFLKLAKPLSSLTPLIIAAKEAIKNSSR
Chain of MAST1 (human) (Q9Y2H9 whole entry, looked up): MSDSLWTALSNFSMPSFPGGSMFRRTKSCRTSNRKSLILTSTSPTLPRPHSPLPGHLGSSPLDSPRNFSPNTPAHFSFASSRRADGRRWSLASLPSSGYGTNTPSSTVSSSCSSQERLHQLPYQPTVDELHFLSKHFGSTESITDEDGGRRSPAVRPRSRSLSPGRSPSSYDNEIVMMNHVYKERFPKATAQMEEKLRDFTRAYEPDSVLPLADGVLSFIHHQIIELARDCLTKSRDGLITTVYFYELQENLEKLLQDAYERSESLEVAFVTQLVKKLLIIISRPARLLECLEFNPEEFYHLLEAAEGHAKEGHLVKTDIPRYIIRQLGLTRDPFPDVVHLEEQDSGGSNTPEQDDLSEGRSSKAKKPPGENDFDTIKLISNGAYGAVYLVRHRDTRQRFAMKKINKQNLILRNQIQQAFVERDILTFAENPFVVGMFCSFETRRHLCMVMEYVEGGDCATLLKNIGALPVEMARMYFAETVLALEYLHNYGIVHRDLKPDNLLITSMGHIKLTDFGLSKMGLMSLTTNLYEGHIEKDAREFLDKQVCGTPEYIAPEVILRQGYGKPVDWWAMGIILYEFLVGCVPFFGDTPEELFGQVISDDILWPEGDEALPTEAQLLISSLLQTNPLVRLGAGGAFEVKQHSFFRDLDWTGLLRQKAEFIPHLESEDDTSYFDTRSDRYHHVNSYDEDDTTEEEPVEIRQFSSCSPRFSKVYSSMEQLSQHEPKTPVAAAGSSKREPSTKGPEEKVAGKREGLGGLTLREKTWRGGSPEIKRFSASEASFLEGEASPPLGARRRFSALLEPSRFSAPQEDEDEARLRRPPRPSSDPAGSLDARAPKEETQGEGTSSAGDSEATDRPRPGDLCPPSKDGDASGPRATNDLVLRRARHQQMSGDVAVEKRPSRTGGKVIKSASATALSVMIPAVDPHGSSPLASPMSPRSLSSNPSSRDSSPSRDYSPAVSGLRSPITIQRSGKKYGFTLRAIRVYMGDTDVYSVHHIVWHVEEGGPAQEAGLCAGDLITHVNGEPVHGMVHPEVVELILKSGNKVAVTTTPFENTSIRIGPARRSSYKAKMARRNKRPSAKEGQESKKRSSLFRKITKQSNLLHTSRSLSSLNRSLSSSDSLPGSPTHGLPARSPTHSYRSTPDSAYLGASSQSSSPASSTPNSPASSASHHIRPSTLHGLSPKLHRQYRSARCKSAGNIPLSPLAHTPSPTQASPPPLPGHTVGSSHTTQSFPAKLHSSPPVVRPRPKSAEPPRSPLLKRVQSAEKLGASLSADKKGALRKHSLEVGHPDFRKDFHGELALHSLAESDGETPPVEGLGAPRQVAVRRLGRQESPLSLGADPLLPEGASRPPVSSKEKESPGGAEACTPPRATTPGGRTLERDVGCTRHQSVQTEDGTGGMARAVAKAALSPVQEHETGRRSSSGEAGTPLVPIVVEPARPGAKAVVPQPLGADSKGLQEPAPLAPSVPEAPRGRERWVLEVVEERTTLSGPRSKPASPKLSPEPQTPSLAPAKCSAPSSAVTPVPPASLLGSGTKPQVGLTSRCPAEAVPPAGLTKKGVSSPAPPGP

Compound	kinase still bound, per cent of control (MAPK14 (human)) [%]	kinase still bound, per cent of control (GRK7 (human)) [%]	kinase still bound, per cent of control (FGFR3 (human)) [%]	kinase still bound, per cent of control (MARK3 (human)) [%]	kinase still bound, per cent of control (RPS6KA4 KD1 (human)) [%]	kinase still bound, per cent of control (EPHA8 (human)) [%]	kinase still bound, per cent of control (NTRK3 (human)) [%]	kinase still bound, per cent of control (SNRK (human)) [%]	kinase still bound, per cent of control (PIP4K2C (human)) [%]	kinase still bound, per cent of control (MAST1 (human)) [%]	kinase still bound, per cent of control (DAPK3 (human)) [%]	kinase still bound, per cent of control (PHKG2 (human)) [%]	kinase still bound, per cent of control [1] [%]	kinase still bound, per cent of control (MAP2K7 (human)) [%]	kinase still bound, per cent of control (LIMK2 (human)) [%]	kinase still bound, per cent of control (BLK (human)) [%]	kinase still bound, per cent of control (CDC42BPA (human)) [%]	kinase still bound, per cent of control (YES1 (human)) [%]	kinase still bound, per cent of control (MAP3K4 (human)) [%]	kinase still bound, per cent of control (CAMK2B (human)) [%]	other results
CN(C)C/C=C/C(=O)Nc1cccc(Nc2ncc3c(n2)N(C)c2ccccc2C(=O)N3C)c1	100	100	12	10	59	90	16	58	6	100	45	25	5	97	94	0.7	100	13	73	40	kinase still bound, per cent of control (MAP4K3 (human)): 28%; kinase still bound, per cent of control (LIMK1 (human)): 71%; kinase still bound, per cent of control (CSNK1A1L (human)): 100%; kinase still bound, per cent of control (CDK14 (human)): 100%; kinase still bound, per cent of control (SRPK2 (human)): 100%; kinase still bound, per cent of control (HCK (human)): 13%; kinase still bound, per cent of control (BRSK1 (human)): 14%; kinase still bound, per cent of control (CSNK1A1 (human)): 26%; kinase still bound, per cent of control (MAP3K6 (human)): 94%; kinase still bound, per cent of control (SRPK1 (human)): 23%; kinase still bound, per cent of control (PIM2 (human)): 100%; kinase still bound, per cent of control (MAP4K1 (human)): 38%; kinase still bound, per cent of control (MAP3K10 (human)): 89%; kinase still bound, per cent of control (BTK (human)): 42%; kinase still bound, per cent of control [2]: 62%; kinase still bound, per cent of control (GAK (human)): 13%; kinase still bound, per cent of control (CaMK1 (human)): 49%; kinase still bound, per cent of control (PAK3 (human)): 14%; kinase still bound, per cent of control (TNK2 (human)): 4.4%; kinase still bound, per cent of control (MAPK3 (human)): 100%
O=C(NC1CC1)c1cccc(-c2ccc3c(NC(=O)C4CC4)n[nH]c3c2)c1	2	84	100	75	100	92	44	100	95	94	69	84	40	100	98	100	87	92	93	84	kinase still bound, per cent of control (MAP4K3 (human)): 60%; kinase still bound, per cent of control (LIMK1 (human)): 100%; kinase still bound, per cent of control (CSNK1A1L (human)): 100%; kinase still bound, per cent of control (CDK14 (human)): 46%; kinase still bound, per cent of control (SRPK2 (human)): 58%; kinase still bound, per cent of control (HCK (human)): 100%; kinase still bound, per cent of control (BRSK1 (human)): 64%; kinase still bound, per cent of control (CSNK1A1 (human)): 100%; kinase still bound, per cent of control (MAP3K6 (human)): 86%; kinase still bound, per cent of control (SRPK1 (human)): 43%; kinase still bound, per cent of control (PIM2 (human)): 100%; kinase still bound, per cent of control (MAP4K1 (human)): 68%; kinase still bound, per cent of control (MAP3K10 (human)): 95%; kinase still bound, per cent of control (BTK (human)): 100%; kinase still bound, per cent of control [2]: 96%; kinase still bound, per cent of control (GAK (human)): 49%; kinase still bound, per cent of control (CaMK1 (human)): 84%; kinase still bound, per cent of control (PAK3 (human)): 60%; kinase still bound, per cent of control (TNK2 (human)): 100%; kinase still bound, per cent of control (MAPK3 (human)): 95%
